From patent EP4813990A1, “COMPOUND FOR TREATING CANCER” (INNOLAKE BIOPHARMA (HANGZHOU) CO., LTD., priority 2023, dated 2025)
“And” between values parts separate entries of the source, which are not always exact repeats. Equal values may be shown once.

What was measured:
CYP3A4 = assay: In vitro hepatocyte induction assay; assay type: in vitro ADME; conditions: for induction, gene expression level: hepatocytes
From the text: (§1) In vitro hepatocyte induction assay was used to evaluate the effect of ILB-2109 on the enzyme activity and gene expression level of cytochrome P450 isoenzymes CYP1A2, CYP2B6 and CYP3A4.

CYP2B6 = assay: In vitro hepatocyte induction assay; assay type: in vitro ADME
From the text: as §1

CYP1A2 = assay: In vitro hepatocyte induction assay; assay type: in vitro ADME
From the text: as §1

A2b receptor = A2b receptor (Homo sapiens, UniProt P29275); assay: Adenosine receptor selectivity, A2aR compared with A2b; assay type: binding
Sequence of A2b receptor (P29275 whole entry): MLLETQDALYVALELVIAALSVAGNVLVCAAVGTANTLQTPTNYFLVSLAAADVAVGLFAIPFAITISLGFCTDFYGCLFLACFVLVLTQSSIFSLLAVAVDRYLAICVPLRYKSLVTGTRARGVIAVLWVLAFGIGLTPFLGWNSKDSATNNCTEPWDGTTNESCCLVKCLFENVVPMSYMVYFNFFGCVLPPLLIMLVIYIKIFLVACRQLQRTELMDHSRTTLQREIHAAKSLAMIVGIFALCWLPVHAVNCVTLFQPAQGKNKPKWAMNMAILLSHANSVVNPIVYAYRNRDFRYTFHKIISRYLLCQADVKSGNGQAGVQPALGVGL
From the text: Meanwhile, ILB-2109 had high selectivity for A2aR (compared with A1, A2b and A3 receptors, the selectivity was 18.9 times, 40.7 times and 3424.7 times respectively).

[1] = tested on: MC38 mouse colon cancer xenograft; assay: MC38 mouse colon cancer xenograft model, single agent and combination with anti-CTLA-4 antibody; assay type: in vivo, C57BL/6 mice; conditions: for Tumor Volume (mm^3) (Day 9): Day 9 after inoculation; for Tumor Volume (mm^3) (Day 9) / Tumor Volume (mm^3) / Tumor Volume (mm^3) (Day 15) / Tumor Weight / Tumor Volume (mm^3) (Day 12): Mean ± SEM; for Tumor Volume (mm^3) (Day 9) / Tumor Volume (mm^3) / Tumor Volume (mm^3) (Day 15) / Number of Animals with Tumor Volume > 250mm^3 / T/C (%) (Day 21) / Tumor Volume (mm^3) (Day 12) / TGI (%) (Day 21): n=8; for Tumor Volume (mm^3) (Day 15): Day 15 after inoculation; for Number of Animals with Tumor Volume > 250mm^3 / T/C (%) (Day 21) / TGI (%) (Day 21): Day 21; for Tumor Weight: end of experiment (D23); for Tumor Volume (mm^3) (Day 12): head prints Day 12; for TGI (%) (Day 21): tumor volume based; for TGITW (%): tumor weight based
Description: A total of 6 groups were set up in the experiment: vehicle control group, ILB-2109 low-dose and high-dose single-agent groups, Anti-CTLA-4 antibody single-agent group, and two dose groups of ILB-2109 and Anti-CTLA-4 in combination. Table 1. Experimental Administration Dosage and Grouping
Anti-CTLA-4 antibody was aseptically diluted to 0.5 mg/mL with DPBS and prepared immediately before administration.
ILB-2109 was formulated to 10 mg/mL with vehicle, 1% tween80 + 9% PEG400 + 90% ddwater. Specific preparation method: Prepare Vehicle 1 (10 mL Tween80, 90 mL PEG400, 900 mL ddwater), weigh 1120 mg of ILB-2109 and add into 112 mL of Vehicle 1, grind to basically uniform, then ultrasonicate for about 2-3 minutes to obtain a homogeneous suspension. An appropriate amount of the solution was diluted to 5 mg/mL with Vehicle 1 (1% Tween80 + 9% PEG400 + 90% ddwater) at a ratio of 1:1. The prepared solution was aliquoted into 5 mL EP tubes with 4 mL per tube and stored at 4°C. Prepared once a week.
48 female C57BL/6 mice were inoculated subaxillarily with 0.1 mL DPBS containing 2×10^5 MC38 cells. On the day of inoculation, mice were randomly divided into vehicle control group, ILB-2109 low-dose group and ILB-2109 high-dose group according to body weight, with 16 animals in each group. The day of inoculation was defined as D1. On D9 after inoculation, the average tumor volume of the vehicle control group reached about 64 mm^3. According to animal tumor volume and body weight, the original vehicle control group was divided into vehicle control group and Anti-CTLA-4 antibody single-agent group; the original ILB-2109 low-dose group was divided into ILB-2109 low-dose single-agent group and the combination group of low-dose ILB-2109 and anti-CTLA-4 antibody; the original ILB-2109 high-dose group was divided into ILB-2109 high-dose single-agent group and the combination group of high-dose ILB-2109 and Anti-CTLA-4 antibody. Administration was carried out for each group on the day of regrouping according to the set dosage.
Tumor volume was measured and body weight was weighed 3 times a week.
All animals were euthanized on D23 after inoculation, and tumor samples were collected and weighed.
Tumor volume was measured 3 times a week, and tumor growth inhibition TGITV (%) was calculated. The calculation formula of Tumor Volume (TV) is: TV = 1/2 × a × b^2 [formula] where a and b represent the major diameter and minor diameter of the tumor mass respectively. [formula]
Tumor weight of animals was measured during sample collection. The tumor growth inhibition was calculated according to the following formula: Tumor Growth Inhibition based on Tumor Weight TGITW(%) = (TWc−TWt)/TWc × 100% [formula] where TWt is the mean tumor weight of the treatment group, and TWc is the mean tumor weight of the vehicle control group.
All data were expressed as Mean ± SEM.
In this experiment, data on D21 after inoculation were used for statistical analysis by PRISM software. T test was used for comparison between two groups, and one-way ANOVA was used for comparison among three or more groups.

[2] = Single-dose toxicity study in cynomolgus monkeys; conditions: cynomolgus monkey, in vivo, po, single intragastric administration within 24 h, observed 14 days, read-out: maximum tolerated dose (MTD)
Description: In accordance with the relevant requirements of the Good Laboratory Practice for Non-clinical Drug Studies issued by the National Medical Products Administration of the People's Republic of China, and following the test protocol and revisions, the safety pharmacology test, single-dose toxicity, genetic toxicity, etc. of ILB-2109 were explored.
Cynomolgus monkeys were given single intragastric administration of 0 (vehicle), 250, 500 and 1000 mg/kg ILB-2109 and observed continuously for 14 days after single administration. […] Within 30 min ~ 4 h after administration on the day of administration, mild vomiting (a small amount of food-like vomit) occurred in medium and high-dose groups. No abnormalities were found in body weight, food consumption, body temperature, respiration, electrocardiogram, blood routine, ophthalmic examination, clinical examination, bone marrow and gross anatomy. Under the test conditions, the maximum tolerated dose (MTD) of cynomolgus monkeys given single intragastric administration of ILB-2109 within 24 h was 1000 mg/kg. The test substance had effects on digestive system (gastrointestinal function, liver function).

[3] = Excretion of total radioactivity in intact rats; assay type: in vivo
Description: Excretion mainly occurred within 48 hours after administration, accounting for about 88.01% of the administered dose.

CHL cells = assay: Chromosome aberration test; assay type: cell-based; conditions: CHL cells treated at 3.2, 16.0 and 80.0 µg/mL
From the text: The test observed the effect of ILB-2109 on chromosome structure and number of mammalian cells (CHL cells).

[4] = hepatocytes, 0.200, 2.00 or 20.0 µM
[5] = ILB-2109 100 mg/kg gavage twice a day
[6] = ILB-2109 50 mg/kg gavage twice a day
[7] = 0-168 hours after single oral administration

Cc1cc(-c2c(-c3ccccc3)nc(N)n3nc(CO)nc23)cc(C(F)(F)F)n1 [ILB-2109]
induction, gene expression level (CYP3A4; 2.00 µM, Donor 1 and Donor 3): inducer
induction, gene expression level (CYP3A4; 20.0 µM, Donor 1, 2 and 3): inducer
induction, enzyme activity (CYP3A4; [4]): not an inducer
induction, gene expression level (CYP2B6; hepatocytes, 20.0 µM, Donor 1): inducer
induction, enzyme activity (CYP2B6; [4]): not an inducer
induction, gene expression level (CYP1A2; hepatocytes, 20.0 µM, Donor 1): inducer
induction, enzyme activity (CYP1A2; [4]): not an inducer
selectivity for A2aR compared with A2b receptor (A2b receptor): 40.7 times
Tumor Volume (mm^3) (Day 9) ([1]; ILB-2109 50 mg/kg gavage twice a day, 50 mg/kg): 63±6 mm^3 and 63.65±6 mm^3
Tumor Volume (mm^3) (Day 9) [1, 5]: 58±4 mm^3
Tumor Volume (mm^3) ([1]; Day 11 after inoculation, ILB-2109 50 mg/kg gavage twice a day): 115±13 mm^3
Tumor Volume (mm^3) ([1]; Day 11 after inoculation, ILB-2109 100 mg/kg gavage twice a day): 78±8 mm^3
Tumor Volume (mm^3) ([1]; Day 13 after inoculation, ILB-2109 50 mg/kg gavage twice a day): 143±20 mm^3
Tumor Volume (mm^3) ([1]; Day 13 after inoculation, ILB-2109 100 mg/kg gavage twice a day): 105±11 mm^3
Tumor Volume (mm^3) (Day 15) [1, 6]: 225±34 mm^3
Tumor Volume (mm^3) (Day 15) ([1]; ILB-2109 100 mg/kg gavage twice a day, 100 mg/kg): 257±18 mm^3 and 157±18 mm^3
Tumor Volume (mm^3) ([1]; Day 17 after inoculation, ILB-2109 50 mg/kg gavage twice a day): 269±41 mm^3
Tumor Volume (mm^3) ([1]; Day 17 after inoculation, ILB-2109 100 mg/kg gavage twice a day): 207±25 mm^3
Number of Animals with Tumor Volume > 250mm^3 [1, 6]: 8/8
T/C (%) (Day 21) [1, 6]: 70.61%
Number of Animals with Tumor Volume > 250mm^3 [1, 5]: 5/8
T/C (%) (Day 21) [1, 5]: 52.76%
Tumor Volume (mm^3) ([1]; Day 21 after inoculation, ILB-2109 50 mg/kg gavage twice a day): 494±87 mm^3
Tumor Volume (mm^3) ([1]; Day 21 after inoculation, ILB-2109 100 mg/kg gavage twice a day): 369±54 mm^3
Tumor Weight [1, 6]: 1.7030 ± 0.1419 g
Tumor Weight [1, 5]: 0.6318 ± 0.1355 g
Tumor Volume (mm^3) (Day 12) [1, 6]: 494±87 mm^3
Tumor Volume (mm^3) (Day 12) [1, 5]: 369±54 mm^3
TGI (%) (Day 21) [1, 6]: 29.39%
TGI (%) (Day 21) [1, 5]: 47.24%
TGITW (%) [1, 6]: 31%
TGITW (%) [1, 5]: 38%
MTD at 14 days [2]: 1000 mg/kg
average of total radioactivity recovery [3, 7]: 91.74%
cage washing and cleaning fluid, share of the administered dose [3, 7]: 2.75%
feces, share of the administered dose [3, 7]: 75.17%
total urinary excretion, share of the administered dose [3, 7]: 13.81%
excretion within 48 hours, share of the administered dose ([3]; within 48 hours after administration): about 88.01%
chromosome aberration test result (CHL cells): negative
